# Reference: the NIST ThermoML archive (doi:10.1016/j.fluid.2015.07.037)
# ± gives the expanded uncertainty stated by the source.
# Experiments:
# [1] = Molar enthalpy of transition or fusion; conditions: Crystal; DSC
# [2] = Crystal; DTA
SMILES,Molar enthalpy of transition or fusion [1] [kcal/mol],Normal melting temperature [2] [°C]
CC(C)NCC(O)c1ccc(O)c(O)c1.Cl (stereo unspecified),19.1 ± 0.382,170.22 ± 0.41
CNCC(O)c1ccc(O)cc1 (stereo unspecified) [synephrine],23.8 ± 0.478,190.38 ± 0.41
C[C@H](N)[C@H](O)c1cccc(O)c1.O=C(O)[C@H](O)[C@@H](O)C(=O)O,18.5 ± 0.382,179.54 ± 0.41
